Values after ≈ are worked out from the molar mass of the structure shown.
How the values were obtained:
[1] = Stability of CPT standard solutions (HPLC); format: physicochemical
Procedure: The lactone and carboxylate forms of CPT were analyzed by HPLC using a fully-automated Shimadzu LC-10 system, equipped with a fluorescence detector, a Supelco's C-18 discovery column (15 cm×4.6 mm, 5 am Supelco Park, Bellefonte, Pa.) and a guard column. The detector was set at an excitation wavelength of 370 nm and an emission wavelength of 435 nm. The mobile phase consisted of a 73.27 (v/v) mixture of triethylamine-acetate buffer (0.1% triethylamine, adjusted with glacial acetic acid to pH 5.5) and acetonitrile. A flow rate of 1 ml/min and an injection volume of 20 μl were used in the analysis. To avoid carryover between successive injections, the injector was washed thoroughly with methanol. The standard solutions of CPT-lactone and CPT-carboxylate were made by dilution of the CPT stock solution in dimethylsulfoxide (DMSO) with 0.02M HC1 and 0.02M NaOH solutions, respectively. The analysis of the CPT-lactone was performed immediately, whereas that of CPT-carboxylate 30 min. after making the solution. Standard solutions of CPT-lactone and CPT-carboxylate were stable for two weeks at 4° C. and for 24 hours at room temperature.

[2] = In-vitro dissolution of CPT in pH 7.4 phosphate buffer (dialysis bag); format: physicochemical; settings: 0.02% Tween 80, 37° C., sink conditions
Procedure: The dissolution of CPT from microspheres and physical mixtures and that of free CPT was evaluated in pH 7.4 phosphate buffer solution (composition: 137 mM NaCl, 3 mM KC1, 8 mM Na2HPO4, 1 mM KH2PO4), containing 0.02% Tween 80 at 37° C. under sink conditions. Briefly, an accurately weighed amount of microspheres was suspended in the buffer medium. The suspension was placed in a dialysis bag (MWCO […], Snakeskin™) and then dialyzed against the buffer solution. 1 ml of the release medium was removed at the predetermined time intervals. To maintain the sink condition, an equal volume of the fresh buffer solution was immediately added to the release medium. The concentrations of both lactone and carboxylate forms of CPT in the release media were determined by HPLC assay.

[3] = system: human-derived lymphoid RPMI-8402 leukemia cells; experiment: Cytotoxicity, inhibition of DNA synthesis (3H-thymidine); format: cell-based; settings: lymphoid RPMI-8402 cells
Procedure: (§1) The cytotoxicity of free CPT and OC—(COOH 20%)/CPT microspheres was evaluated against human-derived lymphoid RPMI-8402 (FIG. 7) and myeloid THP-1 leukemia cell lines (see FIG. 6). […] The cells were diluted to 1×10^6 cells/ml in RPMI 1640 media, supplemented with 1% pen/strep, 1% glutamine, and 10% fetal calf serum, and plated in triplicate at the 2×10^5 cells/well in a 96 well plate. CPT or OC—(COOH 20%)/CPT microspheres were then added, at the equal concentrations, to the wells and the cells were incubated for 20 hours at 37° C. and in 5% CO2. Radiolabeled thymidine (0.04 μci/well) was added to each well at 20 hours and 24 hours. The cells were harvested onto a Reeves Angel 934 AH filter using a Brandel automated cell harvester. Radiolabeled DNA was then measured as disintegration per minute (dpm) by scintillation spectroscopy.

[4] = system: human-derived myeloid THP-1 leukemia cells; experiment: as above; format: cell-based; settings: myeloid THP-1 cells
Procedure: as §1

CC[C@@]1(O)C(=O)OCc2c1cc1n(c2=O)Cc2cc3ccccc3nc2-1 [CPT-lactone]
stability of standard solution ([1]; at 4° C.): two weeks
stability of standard solution ([1]; at room temperature): 24 h

CC[C@@]1(O)C(=O)OCc2c1cc1n(c2=O)Cc2cc3ccccc3nc2-1 [Free CPT, 20(S)-camptothecin]
T-50 (hrs), dissolution of CPT [2]: 118.6 h
ED50 [3]: 0.025 µg/mL (≈ 0.0718 µM)
ED50 [4]: 0.75 µg/mL (≈ 2.15 µM)

CCC(O)(C(=O)O)c1cc2n(c(=O)c1CO)Cc1cc3ccccc3nc1-2 (stereo not shown) [CPT-carboxylate]
stability of standard solution ([1]; at 4° C.): two weeks
stability of standard solution ([1]; at room temperature): 24 h
